What is called IC50 is the concentration that gives 50% inhibition. A high value points to weaker potency in that assay. One may read the melting point as the temperature, or range, at which the solid turns liquid.

Consider four compounds from patent US8067442B2, “Heterocyclic antiviral compounds” (Roche Palo Alto LLC, priority 2008, dated 2011).

In data set [1] the target is T1, HCV polymerase (NS5B570n-Con1) (Hepatitis C virus genotype 1b, UniProt Q9WMX2).
T1 construct: a 21 amino acid C-terminal deletion of full-length HCV polymerase; made in house; host or cells: E. coli BL21(DE3) pLysS, plasmid pET17b
The data set is described as follows: biochemical. The arrangement: species or system HCV Con1 strain.

Data set [2] deals with HCV replicon cells (2209-23), genotype 1b replicon in human hepatoma Huh7 cells. The data set is described as follows: HCV replicon assay (Renilla luciferase reporter). It is filed as cell-based, HCV genotype 1b. The settings on record: Hepatitis C virus, Huh-7, 72 h; 2209-23 cells, three days incubation. On the technique in general: A replicon is a self-replicating genome or part of one, used to study replication in cells.

The nature of another data set: in vitro. To be noted: human.
For the next data set, the system named is HCV. To be noted: cited from earlier work.

As to `CC(C)(C)c1cc(-c2ccc[nH]c2=O)cc2c(-c3cccc(C(N)=O)c3)coc12` [Compound I-78, 3-[7-tert-Butyl-5-(2-oxo-1,2-dihydro-pyridin-3-yl)-benzofuran-3-yl]-benzamide], the melting point lay in the range of 190 to 193 °C. Half-maximal inhibition in data set [1] (IC50) required 9 nM. In data set [2], this compound yielded an IC50 of 78 nM. The CC50 in the data set “in vitro” turned out to be 12400 nM.

`CC(C)(C)c1cc(-c2ccc[nH]c2=O)cc2c(-c3ccc(N)cc3)coc12` [Compound I-86]: the melting point was 248 to 250 °C. Moreover, in data set [2], half-maximal inhibition (IC50) was put at 346 nM. In “in vitro”, this compound had a CC50 of 29200 nM.

For `CC(C)(C)c1cc(-c2ccc[nH]c2=O)cc2c(C(=O)N3CCC[C@H](CNS(C)(=O)=O)C3)coc12` [Compound I-100], the values for the half-inhibitory concentration (IC50) in data set [1] and in data set [2] were 8 nM and 14 nM, respectively.

As to `NC(=O)c1ncn([C@@H]2O[C@H](CO)[C@@H](O)[C@H]2O)n1` [ribavirin, 1-((2R,3R,4S,5R)-3,4-Dihydroxy-5-hydroxymethyl-tetrahydro-furan-2-yl)-1H-[1,2,4]triazole-3-carboxylic acid amide], the “serum levels of HCV-RNA” value with HCV (monotherapy / sole treatment) was “does not lower”. The “patients in whom serum amino transferase levels are reduced to normal” value in the data set on HCV (monotherapy) is recorded as 40%.
